In US20130225633A1, “PHENYL HETEROCYCLOALKYL GLUCOCORTICOID RECEPTOR MODULATORS” (Corcept Therapeutics, Inc., priority 2012, published 2013):

Assays:
[1] = biological target: T1, GR (TAT induction in HepG2 cells) (Homo sapiens, UniProt P04150); test: cell-based; details: read-out: GR functional Ki
T1 construct: host or cells: HepG2 (human hepatocellular carcinoma)
T1 sequence (P04150 1-777): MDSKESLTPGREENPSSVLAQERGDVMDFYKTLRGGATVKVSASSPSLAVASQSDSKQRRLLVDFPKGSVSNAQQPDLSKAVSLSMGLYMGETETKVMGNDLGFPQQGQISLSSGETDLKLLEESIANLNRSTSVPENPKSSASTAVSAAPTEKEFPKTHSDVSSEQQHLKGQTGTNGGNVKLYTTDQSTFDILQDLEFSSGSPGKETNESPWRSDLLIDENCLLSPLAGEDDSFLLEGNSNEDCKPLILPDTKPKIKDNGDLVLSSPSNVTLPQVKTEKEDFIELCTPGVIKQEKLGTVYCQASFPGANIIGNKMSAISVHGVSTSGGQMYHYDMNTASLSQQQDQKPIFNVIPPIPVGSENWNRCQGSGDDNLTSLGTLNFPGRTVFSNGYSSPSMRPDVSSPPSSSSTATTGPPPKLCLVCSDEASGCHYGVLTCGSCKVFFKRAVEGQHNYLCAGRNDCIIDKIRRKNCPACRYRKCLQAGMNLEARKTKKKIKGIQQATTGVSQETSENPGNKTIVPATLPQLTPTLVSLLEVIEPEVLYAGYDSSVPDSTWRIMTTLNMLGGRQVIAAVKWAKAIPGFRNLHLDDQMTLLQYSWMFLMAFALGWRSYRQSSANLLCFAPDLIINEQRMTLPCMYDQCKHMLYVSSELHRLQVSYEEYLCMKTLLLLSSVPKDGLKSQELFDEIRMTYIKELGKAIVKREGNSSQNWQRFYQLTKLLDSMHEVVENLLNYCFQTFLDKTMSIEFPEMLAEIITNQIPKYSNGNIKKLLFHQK
Experimental: Glucocorticoid mediated activation of TAT occurs by transactivation of glucocorticoid response elements in the TAT promoter by glucocorticoid receptor-agonist complex.
TAT activity was measured as outlined in the literature by A. Ali et al., J. Med. Chem., 2004, 47, 2441-2452.
HepG2 cells were cultured using MEME media supplemented with 10% (v/v) foetal bovine serum; 2 mM L-glutamine and 1% (v/v) NEAA at 37° C., 5%/95% (v/v) CO2/air. The HepG2 cells were counted and adjusted to yield a density of 0.125×10^6 cells/ml in RPMI 1640 without phenol red, 10% (v/v) charcoal stripped FBS, 2 mM L-glutamine and seeded at 25,000 cells/well in 200 μl into 96 well, sterile, tissue culture micro titre plates, and incubated at 37° C., 5% CO2 for 24 hours
Growth media was removed and replaced with assay media {RPMI 1640 without phenol red, 2 mM L-glutamine+10 μM forskolin}. […] Compounds were serially half log diluted in 100% (v/v) dimethylsupfoxide from a 10 mM stock.
HepG2 cells were then lysed with 30 μl of cell lysis buffer containing a protease inhibitor cocktail for 15 minutes at 4° C. 155 μl of substrate mixture was then added containing 5.4 mM Tyrosine sodium salt, 10.8 mM alpha ketoglutarate and 0.06 mM pyridoxal 5′ phosphate in 0.1M potassium phosphate buffer (pH 7.4). After 2 hours incubation at 37° C. the reaction was terminated by the addition of 15 μl of 10M aqueous potassium hydroxide solution, and the plates incubated for a further 30 minutes at 37° C. The TAT activity product was measured by absorbance at λ 340 nm.
[compound] and fitting the data to a 4 parameter logistic equation.

[2] = biological target: T2, human recombinant GR (Homo sapiens, UniProt P04150); test: Human GR fluorescence polarisation (FP) binding assay (Example 23)
T2 construct: purchased PanVera P2812
T2 sequence (P04150 1-777): T1 sequence (P04150 1-777)
Experimental: The following is a description of a FP assay for measuring compound inhibition of labelled glucocorticoid binding to the human recombinant GR.
The binding affinity of test compounds was determined using a FP binding assay using human recombinant GR (PanVera P2812) and a fluorescent labelled glucocorticoid ligand (Fluorome GS Red) (PanVera P2894). The presence of inhibitors prevents the formation of a GS Red/GR complex resulting in a decrease in the measured polarisation value. The change in polarisation value in the presence of test compounds is used to calculate the binding affinity of the compound for GR.
This assay was performed in 384 well, black, round-bottom, polypropylene micro titre plates in a final volume of 20 μl. The assay contained 5 μl 1 nM GR (final concentration), 5 μl 0.5 nM Fluorome GS Red (final concentration) in the presence of 10 μl test compounds. Positive control wells (high polarisation) receive, 10 μl 2% (v:v) DMSO vehicle (1% (v/v) final concentration)+5 μl 1 nM GR and 5 μl 0.5 nM Fluorome GS Red. […] Assay blank background wells (used for normalisation) receive 15 μl 1×GS screening buffer+5 μl GR.
For the IC50 determination (concentration of compound that displaces 50% of the bound GS Red), compounds were tested at eight different concentrations in duplicate in two independently performed experiments. Compounds were prepared as solubilised solids at 10 mM in DMSO. On the day of assay, an 8 point half-log serial dilution (55 μl DMSO+25 μl compound solution) was prepared. A 1:50 dilution (1 μl compound solution+49 μl 1×GR screening buffer) was prepared for each compound. The compounds were prepared at 2× final assay concentration.
The plates were mixed and incubated for 4 hour at room temperature. FP was measured using an Envision Excite plate reader with 535 nm excitation and 590 nm emission interference filters.
Milli-polarisation (mP) values were calculated using the below equation—
where S and P are assay blank background subtracted fluorescence units, G=G-factor (1.07).
Compound IC50 values were calculated by plotting a [compound] v. % inhibition curve and fitting the data to a 4-parameter logistic fit equation.
Reagents. 10×GR screening buffer (100 mM potassium phosphate pH 7.4, 200 mM Na2MoO4, 1 mM EDTA, 20% (v/v) DMSO). To prepare 1×GR screening buffer, combine 1 ml 10×GR screening buffer (PanVera P2814)+1 ml stabilising peptide (PanVera P2815)+7.95 ml 4° C. MQ water. Add 50 μl 1M DTT, vortex and place on ice until use.

| Compound | Ki [1] [nM] | Ki [2] [nM] |
| --- | --- | --- |
| COC[C@]12Cc3cnn(-c4ccc(F)cc4)c3C=C1CCN(S(=O)(=O)c1ccc(N3CCC(F)(F)C3)cc1)C2 [Example 16, (R)-1-(4-Fluoro-phenyl)-6-[4-(3,3-difluoropyrrolidin-1-yl)-benzenesulfonyl]-4a-methoxymethyl-4,4a,5,6,7,8-hexahydro-1H-1,2,6-triaza-cyclopenta[b]naphthalene] | > 100 | < 0.5 |
| COC[C@]12Cc3cnn(-c4ccc(F)cc4)c3C=C1CCN(S(=O)(=O)c1ccc(N3CCC(C)(C)C3)cc1)C2 [Example 21, (R)-1-(4-Fluoro-phenyl)-6-[4-(3,3-dimethylpyrrolidin-1-yl)-benzenesulfonyl]-4a-methoxymethyl-4,4a,5,6,7,8-hexahydro-1H-1,2,6-triaza-cyclopenta[b]naphthalene] | > 100 | < 0.5 |
| COC[C@]12Cc3cnn(-c4ccc(F)cc4)c3C=C1CCN(S(=O)(=O)c1ccc(N3CC[C@H](OC)C3)cc1)C2 [Example 19, (R)-1-(4-Fluoro-phenyl)-6-[4-((S)-3-methoxypyrrolidin-1-yl)-benzenesulfonyl]-4a-methoxymethyl-4,4a,5,6,7,8-hexahydro-1H-1,2,6-triaza-cyclopenta[b]naphthalene] | > 100 | < 0.5 |
| COC[C@]12Cc3cnn(-c4ccc(F)cc4)c3C=C1CCN(S(=O)(=O)c1ccc(N3CCC[C@H]3C)cc1)C2 [Example 17, (R)-1-(4-Fluoro-phenyl)-6-[4-((R)-2-methylpyrrolidin-1-yl)-benzenesulfonyl]-4a-methoxymethyl-4,4a,5,6,7,8-hexahydro-1H-1,2,6-triaza-cyclopenta[b]naphthalene] | > 100 | < 0.5 |
| COC[C@@H]1CCCN1c1ccc(S(=O)(=O)N2CCC3=Cc4c(cnn4-c4ccc(F)cc4)C[C@]3(COC)C2)cc1 [Example 18, (R)-1-(4-Fluoro-phenyl)-6-[4-((S)-2-(methoxymethyl)pyrrolidin-1-yl)-benzenesulfonyl]-4a-methoxymethyl-4,4a,5,6,7,8-hexahydro-1H-1,2,6-triaza-cyclopenta[b]naphthalene] | 50 to 100 | 0.5 to 1 |
| COC[C@]12Cc3cnn(-c4ccc(F)cc4)c3C=C1CCN(S(=O)(=O)c1ccc(N3CCCCC3)cc1)C2 [Example 20, (R)-1-(4-Fluoro-phenyl)-6-[4-(piperidin-1-yl)-benzenesulfonyl]-4a-methoxymethyl-4,4a,5,6,7,8-hexahydro-1H-1,2,6-triaza-cyclopenta[b]naphthalene] | 50 to 100 | < 0.5 |
